Reference: the CheMixHub viscosity set
± gives the uncertainty stated by the source.

Test: xn = mol fraction of the nth substance listed

O=[N+]([O-])c1ccccc1 + CCCCCCC
101.3 kPa
Conditions | viscosity [mPa·s]
293.15 K, x1 = 0.149 | 0.482 ± 0.004
293.15 K, x1 = 0.2214 | 0.532 ± 0.004
293.15 K, x1 = 0.2746 | 0.58 ± 0.004
293.15 K, x1 = 0.3291 | 0.631 ± 0.005
293.15 K, x1 = 0.4214 | 0.759 ± 0.007
293.15 K, x1 = 0.4477 | 0.805 ± 0.007
293.15 K, x1 = 0.4729 | 0.845 ± 0.008
293.15 K, x1 = 0.4886 | 0.862 ± 0.008
293.15 K, x1 = 0.5628 | 0.937 ± 0.007
293.15 K, x1 = 0.6392 | 1.016 ± 0.008
293.15 K, x1 = 0.7954 | 1.313 ± 0.01
293.15 K, x1 = 0.8751 | 1.517 ± 0.01
293.16 K, x1 = 0.383 | 0.845 ± 0.009
293.57 K, x1 = 0.383 | 0.831 ± 0.008
294.17 K, x1 = 0.383 | 0.812 ± 0.007
295.09 K, x1 = 0.383 | 0.794 ± 0.006
295.15 K, x1 = 0.149 | 0.471 ± 0.004
295.15 K, x1 = 0.2214 | 0.517 ± 0.004
295.15 K, x1 = 0.2746 | 0.562 ± 0.004
295.15 K, x1 = 0.3291 | 0.611 ± 0.005
295.15 K, x1 = 0.4214 | 0.72 ± 0.006
295.15 K, x1 = 0.4477 | 0.759 ± 0.006
295.15 K, x1 = 0.4729 | 0.79 ± 0.006
295.15 K, x1 = 0.4886 | 0.808 ± 0.006
295.15 K, x1 = 0.5628 | 0.896 ± 0.007
295.15 K, x1 = 0.6392 | 0.984 ± 0.007
295.15 K, x1 = 0.7954 | 1.274 ± 0.009
295.15 K, x1 = 0.8751 | 1.475 ± 0.01
296.42 K, x1 = 0.383 | 0.768 ± 0.006
298.66 K, x1 = 0.383 | 0.736 ± 0.006
299.15 K, x1 = 0.149 | 0.451 ± 0.003
299.15 K, x1 = 0.2214 | 0.498 ± 0.004
299.15 K, x1 = 0.2746 | 0.539 ± 0.004
299.15 K, x1 = 0.3291 | 0.579 ± 0.004
299.15 K, x1 = 0.4214 | 0.67 ± 0.005
299.15 K, x1 = 0.4477 | 0.702 ± 0.005
299.15 K, x1 = 0.4729 | 0.73 ± 0.005
299.15 K, x1 = 0.4886 | 0.746 ± 0.006
299.15 K, x1 = 0.5628 | 0.836 ± 0.006
299.15 K, x1 = 0.6392 | 0.926 ± 0.006
299.15 K, x1 = 0.7954 | 1.201 ± 0.008
299.15 K, x1 = 0.8751 | 1.385 ± 0.009
305.15 K, x1 = 0.149 | 0.423 ± 0.003
305.15 K, x1 = 0.2214 | 0.463 ± 0.003
305.15 K, x1 = 0.2746 | 0.503 ± 0.004
305.15 K, x1 = 0.3291 | 0.536 ± 0.004
305.15 K, x1 = 0.4214 | 0.615 ± 0.004
305.15 K, x1 = 0.4477 | 0.643 ± 0.005
305.15 K, x1 = 0.4729 | 0.678 ± 0.005
305.15 K, x1 = 0.4886 | 0.681 ± 0.005
305.15 K, x1 = 0.5628 | 0.764 ± 0.005
305.15 K, x1 = 0.6392 | 0.85 ± 0.006
305.15 K, x1 = 0.7954 | 1.104 ± 0.007
305.15 K, x1 = 0.8751 | 1.26 ± 0.008
313.15 K, x1 = 0.149 | 0.391 ± 0.003
313.15 K, x1 = 0.2214 | 0.425 ± 0.003
313.15 K, x1 = 0.2746 | 0.459 ± 0.004
313.15 K, x1 = 0.3291 | 0.491 ± 0.004
313.15 K, x1 = 0.4214 | 0.558 ± 0.004
313.15 K, x1 = 0.4477 | 0.58 ± 0.004
313.15 K, x1 = 0.4729 | 0.602 ± 0.005
313.15 K, x1 = 0.4886 | 0.613 ± 0.004
313.15 K, x1 = 0.5628 | 0.689 ± 0.005
313.15 K, x1 = 0.6392 | 0.77 ± 0.005
313.15 K, x1 = 0.7954 | 0.984 ± 0.007
313.15 K, x1 = 0.8751 | 1.124 ± 0.008

CCCCCCCCCCCCCC + CCCCCCC
101 kPa, x2 = 0.5
Conditions | viscosity [mPa·s]
298 K | 1.031 ± 0.027
318 K | 0.7754 ± 0.021

O=[N+]([O-])c1ccccc1 + CC(C)(C)O
viscosity [mPa·s], 101.33 kPa
Conditions | x1 = 0.0627 | x1 = 0.1307 | x1 = 0.2059 | x1 = 0.2864 | x1 = 0.3758 | x1 = 0.4746 | x1 = 0.5843 | x1 = 0.7067 | x1 = 0.8442
298.15 K | 3.205 ± 0.14 | 2.576 ± 0.12 | 2.256 ± 0.1 | 2.001 ± 0.092 | 1.838 ± 0.085 | 1.711 ± 0.08 | 1.655 ± 0.077 | 1.697 ± 0.079 | 1.681 ± 0.079
303.15 K | 2.375 ± 0.11 | 2.152 ± 0.098 | 1.896 ± 0.088 | 1.732 ± 0.081 | 1.622 ± 0.076 | 1.506 ± 0.071 | 1.468 ± 0.07 | 1.477 ± 0.07 | 1.538 ± 0.073

CC(C)CCl + C1CCOC1
viscosity [mPa·s], 101 kPa
Conditions | 298.15 K | 313.15 K
x2 = 0.0537 | 0.4311 ± 0.0053 | 0.368 ± 0.0051
x2 = 0.1037 | 0.4325 ± 0.0053 | 0.3694 ± 0.005
x2 = 0.2081 | 0.4353 ± 0.0053 | 0.3723 ± 0.005
x2 = 0.3079 | 0.4379 ± 0.0053 | 0.3751 ± 0.005
x2 = 0.41 | 0.4409 ± 0.0052 | 0.3781 ± 0.005
x2 = 0.5085 | 0.4442 ± 0.0052 | 0.381 ± 0.005
x2 = 0.5964 | 0.4472 ± 0.0052 | 0.3837 ± 0.005
x2 = 0.705 | 0.4512 ± 0.0052 | 0.3871 ± 0.0049
x2 = 0.8051 | 0.455 ± 0.0052 | 0.3904 ± 0.0049
x2 = 0.8989 | 0.4589 ± 0.0051 | 0.3938 ± 0.0049
x2 = 0.951 | 0.461 ± 0.0051 | 0.3957 ± 0.0049

CCCCCCCCCCCCCC + C1CCCCC1
298.15 K, 101.33 kPa
Conditions | viscosity [mPa·s]
x1 = 0.0144 | 0.9238 ± 0.0078
x2 = 0.1743 | 1.907 ± 0.015
x2 = 0.3074 | 1.756 ± 0.014
x2 = 0.4253 | 1.621 ± 0.013
x2 = 0.5304 | 1.486 ± 0.012
x2 = 0.6125 | 1.384 ± 0.011
x2 = 0.6841 | 1.291 ± 0.01
x2 = 0.7505 | 1.207 ± 0.0099
x2 = 0.8066 | 1.131 ± 0.0093
x2 = 0.8651 | 1.064 ± 0.0088
x2 = 0.9088 | 1.01 ± 0.0084
x2 = 0.9483 | 0.9646 ± 0.0081

C=COCCCC + CCOC(=O)OCC
viscosity [mPa·s], 100 kPa
Conditions | x2 = 0.1011 | x2 = 0.2003 | x2 = 0.2975 | x2 = 0.4029 | x2 = 0.4992 | x2 = 0.6014 | x2 = 0.6975 | x2 = 0.7978 | x2 = 0.9004
303.15 K | 0.406 ± 0.009 | 0.429 ± 0.01 | 0.452 ± 0.01 | 0.48 ± 0.01 | 0.509 ± 0.011 | 0.542 ± 0.012 | 0.575 ± 0.012 | 0.614 ± 0.013 | 0.656 ± 0.014
308.15 K | 0.386 ± 0.009 | 0.406 ± 0.009 | 0.43 ± 0.009 | 0.454 ± 0.01 | 0.483 ± 0.01 | 0.515 ± 0.011 | 0.547 ± 0.012 | 0.583 ± 0.012 | 0.62 ± 0.013
313.15 K | 0.365 ± 0.008 | 0.383 ± 0.009 | 0.403 ± 0.009 | 0.426 ± 0.009 | 0.451 ± 0.01 | 0.481 ± 0.01 | 0.511 ± 0.011 | 0.545 ± 0.012 | 0.582 ± 0.012

CCCCCO + O
viscosity [mPa·s], 101 kPa
Conditions | 298.15 K | 308.15 K | 318.15 K
x2 = 0.0288 | 3.509 ± 0.031 | 2.654 ± 0.023 | –
x2 = 0.029 | – | – | 2.055 ± 0.018
x2 = 0.0453 | 3.487 ± 0.03 | 2.638 ± 0.023 | –
x2 = 0.066 | 3.468 ± 0.03 | 2.62 ± 0.023 | –
x2 = 0.0685 | – | – | 2.026 ± 0.018
x2 = 0.0859 | 3.451 ± 0.03 | 2.606 ± 0.023 | –
x2 = 0.0914 | – | – | 2.016 ± 0.018
x2 = 0.1012 | – | – | 2.006 ± 0.018
x2 = 0.113 | 3.437 ± 0.029 | 2.591 ± 0.022 | –
x2 = 0.1301 | 3.431 ± 0.029 | 2.585 ± 0.022 | 1.997 ± 0.017
x2 = 0.1472 | 3.429 ± 0.029 | 2.579 ± 0.022 | –
x2 = 0.149 | – | – | 1.991 ± 0.017
x2 = 0.1655 | – | 2.577 ± 0.022 | –
x2 = 0.1689 | 3.424 ± 0.029 | – | 1.985 ± 0.017
x2 = 0.1776 | 3.426 ± 0.029 | 2.576 ± 0.022 | –
x2 = 0.2023 | – | – | 1.98 ± 0.017
x2 = 0.216 | 3.428 ± 0.028 | 2.572 ± 0.022 | –
x2 = 0.2419 | 3.438 ± 0.028 | 2.575 ± 0.022 | 1.979 ± 0.017
